ChEMBL document CHEMBL1157539, “Thousands of chemical starting points for antimalarial lead identification” (Nature, 2010)

system: Plasmodium falciparum; assay: GSK_TCMDC: Inhibition of Plasmodium falciparum 3D7 in whole erythrocytes, using parasite LDH activity as an index of growth.; type: functional, organism-based; conditions: Plasmodium falciparum, 3D7

`COc1ccc(-c2cncc(-c3ccc(OC)c(OC)c3)n2)cc1OC` and `COc1cc(Nc2ccnc3cc(-c4ccccn4)ccc23)cc(OC)c1OC` are within 1.5-fold of each other in XC50: 777 nM for the first, 912 nM for the second.

`COc1ccc2nccc([C@@H](O)CN3CCC(NC(=O)CCC(=O)c4cc(C(C)(C)C)ccc4OC)CC3)c2c1` and `COc1ccc2nccc([C@@H](O)CN3CCC(NCCNc4ccccn4)CC3)c2c1` are within 1.5-fold of each other in XC50: 846 nM for the first, 741 nM for the second.

Compared with `Cn1c(N=C2NC3(c4ccccn4)NC(=Nc4nc5ccccc5n4C)NC3(c3ccccn3)N2)nc2ccccc21` (centres undefined), `c1cc(-c2ccc(CN3CCN(c4ccncc4)CC3)cc2)cc(-c2nc3ccccc3[nH]2)c1` is 7.4-fold lower in XC50: 1040 nM for the first, 140 nM for the second.

`CN(c1ccc2c(c1)nc(Nc1cc(C(C)(C)C)on1)n2C)c1ccnc(Nc2ccc(CS(C)(=O)=O)cc2)n1` and `CNS(=O)(=O)c1ccc(NC(=O)c2cc(-c3cccnc3)nc3ccc(Br)cc23)cc1` are within 1.5-fold of each other in XC50: 900 nM for the first, 907 nM for the second.

`COc1cccc(C2=CC(C)(C)Oc3cc(OCCN(C)C)ccc32)c1` and `COc1ccc(CN(C)CCOc2ccc(NC(=O)c3cccc4c(=O)cc(-c5ccccc5)[nH]c34)cc2)cc1OC` are within 1.5-fold of each other in XC50: 794 nM for the first, 921 nM for the second.

`COC(=O)c1ccc(C(=O)NCCCCN2CCC(c3ccc4c(c3OC)CCCC4)CC2)cc1-c1ccc(C(F)(F)F)cc1` and `CCOc1c(OC)ccc2c1CCN(CCN1CCC(CNC(=O)c3ccc(-c4ccc(C(F)(F)F)cc4)cc3)CC1)C2` are within 1.5-fold of each other in XC50: 1150 nM for the first, 849 nM for the second.

`CCOc1ccc2[nH]c(C)cc(=NN=Cc3ccc(Cl)cc3)c2c1` and `FC(F)(F)c1ccc2[nH]ccc(=NN=Cc3ccc(Cl)cc3)c2c1` are within 1.5-fold of each other in XC50: 763 nM for the first, 791 nM for the second.

`COc1ccc(-c2cccc(NC(=O)c3cccc(Cl)c3)c2)cc1CNC(C)C` and `CCNC(=O)Nc1cccc(-c2cccc(-c3nc4cccc(C)c4[nH]3)c2)c1` are within 1.5-fold of each other in XC50: 721 nM for the first, 1040 nM for the second.

Compared with `c1ccc(C(c2ccccc2)N2CCN(C(c3cccnc3)c3nnnn3C3CCCC3)CC2)cc1` (centres undefined), `CC(C)(C)C(=O)Nc1ccc(N2CCN(C(c3ccccc3)c3ccccc3)CC2)c(Cl)c1` is 1.6-fold lower in XC50: 1080 nM for the first, 662 nM for the second.

`O=C(NCc1cccc(OC(F)(F)F)c1)c1cnc2c(c1)nc(-c1c[nH]c(-c3ccccc3)n1)n2CCc1c[nH]cn1` and `Cn1cnc(CCNC(=O)c2cccc(-c3ccc(-c4nc5cc(F)ccc5[nH]4)cc3)c2)c1` are within 1.5-fold of each other in XC50: 683 nM for the first, 941 nM for the second.

Compared with `CS(=O)(=O)N(c1cccc(F)c1)c1cc(C(=O)N[C@@H](Cc2ccccc2)[C@H](O)CNCc2cccc(C(F)(F)F)c2)cc(N2CCCC2=O)c1`, `CCNc1cc(C(=O)N[C@@H](Cc2ccccc2)[C@H](O)CNC2CCC(C)(C)C2)cc(N2CCCCS2(=O)=O)c1` (some centres undefined) is 6.6-fold lower in XC50: 910 nM for the first, 138 nM for the second.

`Cc1cc(NC(=O)c2ccsc2)ccc1OC1CCN(Cc2ccc(F)cc2)CC1` and `Cc1ccc(CNC(=O)c2ccc(CN3CCCN(Cc4ccsc4)CC3)cc2)cc1` are within 1.5-fold of each other in XC50: 1220 nM for the first, 868 nM for the second.

First: Cc1nc(C)c(-c2ccc(Oc3ccc(Cl)c(Cl)c3)cc2)c(O)c1Cl
Second: Nc1nccc2ccc(Oc3ccncc3)cc12
The XC50 of the first is 4.5-fold lower: 106 nM for the first, 481 nM for the second.

`O=c1cc(NCCCNCc2cc(C(F)(F)F)ccc2F)[nH]c2ccccc12` and `FC(F)(F)c1cccc(CNCCCCCNCc2ccc(Cl)cc2)c1` are within 1.5-fold of each other in XC50: 829 nM for the first, 1030 nM for the second.

`Cc1ccc(C(C(=O)Nc2ccc(N3CCNCC3)c(Cl)c2)c2ccccc2)cc1` (centres undefined) and `Cc1ccc(Cn2nc(Cl)c(N3CCNCC3)cc2=O)cc1NC(=O)Nc1ccc(-c2ccccc2)cc1` are within 1.5-fold of each other in XC50: 843 nM for the first, 675 nM for the second.

`O=C(NCc1cccs1)[C@H](Cc1ccccc1)Nc1ccnc(NCCc2ccccc2)n1` and `Cc1cc(N[C@@H](Cc2ccccc2)C(=O)NC2CCCC2)nc(NCc2ccccc2C)n1` are within 1.5-fold of each other in XC50: 1050 nM for the first, 1230 nM for the second.

`CC(=O)Nc1ccc(OCCCCCOc2ccc(NC(C)=O)cc2Cl)c(Cl)c1` and `CCCCCCN1CCN(Cc2cccc(NC(=O)c3ccc(Cl)c(Cl)c3)c2)CC1` are within 1.5-fold of each other in XC50: 833 nM for the first, 610 nM for the second.

Compared with `CC[C@H]1CN(C/C=C/c2ccc(OC)cc2)CC[C@H]1CCCc1ccnc2ccc(O)cc12`, `Cc1c(Br)cc2nc(-c3ccc(C(=O)NC4CCN(Cc5ccccc5)CC4)cc3)[nH]c2c1C` is 2-fold lower in XC50: 657 nM for the first, 332 nM for the second.

First: CCOc1cc(C)ccc1NC1CCN(CCCCNC(=O)c2ccc(NC(=O)c3ccc(Cl)cc3)cc2)CC1
Second: N#Cc1ccc(/C=C/C(=O)NCCCCCN2CCCN(C(=O)Nc3ccc(Cl)c(C(F)(F)F)c3)CC2)cc1
The XC50 of the first is 1.6-fold higher: 714 nM for the first, 437 nM for the second.

`COc1cc(/C=C/C(=O)NCC(CCNc2cc(=O)c3ccccc3[nH]2)NCc2cc(Br)cc(Br)c2)cc(OC)c1` (centres undefined) and `COCCNCc1cccc(-c2ccccc2CN(C(=O)c2ccc3c(c2)OCO3)c2ccc(OC)cc2)c1` are within 1.5-fold of each other in XC50: 915 nM for the first, 1110 nM for the second.

`CCCC(C)Nc1nc(C)cc(N[C@@H](CC(C)C)C(=O)Nc2ccc(OC)cc2)n1` (some centres undefined) and `Cc1cc(N[C@@H](CC(C)C)C(=O)NC2CCCC2)nc(NCCc2ccc(F)cc2)n1` are within 1.5-fold of each other in XC50: 866 nM for the first, 794 nM for the second.

`O=C(Nc1ccc2[nH]c(-c3ccccc3)nc2c1)c1cc(-c2ccc3c(c2)OCCO3)n[nH]1` and `OCCN1CCN(Cc2ccc(-c3ccc(-c4nc5cc(F)ccc5[nH]4)cc3)cc2)CC1` are within 1.5-fold of each other in XC50: 769 nM for the first, 567 nM for the second.

Going from `Cc1cc(N2CCOCC2)nc2ccc(NC(=O)c3ccc(Cl)c([N+](=O)[O-])c3)cc12` to `Nc1c2c(nc3ccc(NC(=O)c4ccccc4)cc13)CCCC2`, the XC50 falls from 1030 nM to 611 nM (1.7-fold).

`CN(C)c1ccc(-c2csc(C(=O)NC3CCN(CCC(C)(C)C)C3)c2)cc1` (centres undefined) and `O=C(C=Cc1ccc(Cl)c(Cl)c1)NCCCCCN1CCCC(CCCNC(=O)c2cccs2)C1` (centres undefined) are within 1.5-fold of each other in XC50: 971 nM for the first, 1300 nM for the second.

Compared with `Cc1cc(N)c2cc(NC(=O)CCC(=O)Nc3ccc4nc(C)cc(N)c4c3)ccc2n1`, `COc1cccc(NC(=O)Nc2ccc(Nc3nc(C)cc(N4CCCC4)n3)cc2)c1` is 4.8-fold lower in XC50: 954 nM for the first, 198 nM for the second.

`c1ccc(COc2ccc(COc3ccc(Cn4ccnc4)cc3)cc2)cc1` and `CN(C)Cc1ccc(-c2ccc3c(Nc4ccc(Oc5ccccc5)cc4)ccnc3c2)o1` are within 1.5-fold of each other in XC50: 947 nM for the first, 788 nM for the second.

First: N#Cc1ccc(-c2ccc(OCC(O)CN3CCCN(Cc4cccc(O)c4Cl)CC3)cc2)cc1 (centres undefined)
Second: O=C(Nc1cccc(CN2CCCN(Cc3ccccc3)CC2)c1)c1ccc(-c2ccccc2)cc1
The XC50 of the first is 1.9-fold lower: 690 nM for the first, 1300 nM for the second.

Compared with `CCN(CC)c1ccccc1CNC(=O)c1cc(Cl)c(N)cc1OC`, `COc1cc(NC(=O)c2c(-c3c(F)cccc3Cl)noc2C)c(OC)cc1Cl` is 4-fold higher in XC50: 213 nM for the first, 861 nM for the second.

Going from `Cc1c(-c2ccccc2)ccc2[nH]cc(CC#N)c12` to `Cc1ccc(-n2c(Cc3cccc4ccccc34)nnc2SCCC#N)c(C)c1`, the XC50 falls from 703 nM to 465 nM (1.5-fold).

Compared with `CC(=O)Nc1cccc(-c2cn(-c3ccc(OCc4cccc(F)c4)c(Cl)c3)c3ncncc23)c1`, `COCCOc1ccc(Nc2nccc(-c3c(-c4cccc(NC(=O)c5c(F)cccc5F)c4)nn4ccccc34)n2)cc1Cl` is 5-fold higher in XC50: 70.9 nM for the first, 356 nM for the second.

`Cc1cnc(CN(Cc2ccc(-c3ccc(CNCCc4ccc(S(C)(=O)=O)cc4)cn3)cc2)C(=O)c2ccc([N+](=O)[O-])c(C)c2)cn1` and `CC(C)(C)c1ccc(CNC(=O)COc2ccc(-c3nnc(-c4cccc([N+](=O)[O-])c4)o3)cc2[N+](=O)[O-])cc1` are within 1.5-fold of each other in XC50: 919 nM for the first, 926 nM for the second.

Going from `COc1c(Br)cc(Br)cc1-c1ccc(CN2C3CCCC2CCC3)[nH]1` to `Nc1nc(N)c2c(ccc3c2ccn3C2CCCCC2)n1`, the XC50 falls from 1110 nM to 123 nM (9-fold).

Going from `O=C(Nc1cccnc1)c1cc(C(=O)Nc2cccnc2)cc([N+](=O)[O-])c1` to `Cc1ccccc1C(=O)NC(NC(=S)Nc1ccc([N+](=O)[O-])cc1)C(Cl)(Cl)Cl` (centres undefined), the XC50 falls from 1120 nM to 745 nM (1.5-fold).

`O=[N+]([O-])c1ccccc1/C=N/Nc1ccnc2cc(Cl)ccc12` and `Cc1ccc(Nc2ccnc3ccc(C(F)(F)F)cc23)cc1O` are within 1.5-fold of each other in XC50: 876 nM for the first, 956 nM for the second.

Compared with `CC(C)C[C@@H](/C=N/N1CC(=O)NC1=O)NC(=O)[C@H](CC(C)C)NC(=O)c1ccc(OCCN2CCOCC2)cc1`, `COc1cccc2cc(C(=O)N[C@@H](CC(C)C)C(=O)N[C@H](C=NN3CCOC3=O)CC(C)C)oc12` is 2.7-fold higher in XC50: 270 nM for the first, 741 nM for the second.

`O=C(NC(CCCN1CCC(c2ccccc2)CC1)c1ccc(Cl)c(Cl)c1)c1cc(C(F)(F)F)cc(C(F)(F)F)c1` (centres undefined) and `O=C(/C=C/c1ccc(Cl)c(Cl)c1)N1CCC(CCN2CCc3[nH]c4ccccc4c3C2)CC1` are within 1.5-fold of each other in XC50: 865 nM for the first, 886 nM for the second.

`O=C(/C=C/c1c[nH]c2ccccc12)NCCCCCN1CCC(c2c[nH]c3ccccc23)CC1` and `Cn1nc(-c2ccc(S(=O)(=O)N3CCC(CCN4CCC(c5c[nH]c6ccccc56)CC4)CC3)s2)cc1C(F)(F)F` are within 1.5-fold of each other in XC50: 932 nM for the first, 815 nM for the second.

Compared with `CC(=O)c1ccc(NC(=O)CSc2nc(-c3ccccc3Cl)ns2)cc1`, `COc1cccc(Nc2nnc(SCC(=O)NNC(=O)c3ccccn3)s2)c1` is 3-fold lower in XC50: 1130 nM for the first, 380 nM for the second.

First: COC(=O)/C=C/c1ccc(CC(C)NCC(O)c2cccc(Cl)c2)cc1 (centres undefined)
Second: Cc1nc(NCc2ccccc2)cc(NCC(O)c2ccc(O)cc2)n1 (centres undefined)
The XC50 of the first is 1.6-fold lower: 751 nM for the first, 1230 nM for the second.

First: Cc1[nH]c(C)c(-c2ccc(-c3ccc(C#N)cc3)nc2)c(=O)c1Br
Second: Cc1cccc2nc(-c3ccc(-c4ccc(NC(=O)Nc5ccc(Cl)cc5)cc4)cc3)[nH]c12
The XC50 of the first is 9.8-fold higher: 981 nM for the first, 100 nM for the second.

First: CC(=O)c1ccc(N2C(=O)C3C(Cc4ccc(OC(C)(C)C)cc4)NC4(C(=O)N(Cc5ccc(C(C)(C)C)cc5)c5ccccc54)C3C2=O)cc1 (centres undefined)
Second: CN(C)C(=O)c1ccc(CN(Cc2cccc(OC(C)(C)C)c2)Cc2ccc3c(c2)OCCO3)cc1
The XC50 of the first is 2.2-fold higher: 1280 nM for the first, 571 nM for the second.

Going from `COc1cccc(CCc2c(CCNCCCCCCNCCc3ccccc3)ccc(OC)c2OC)c1` to `CCCCNCc1ccc(OCc2cccc(COc3ccc(CNCCCC)cc3I)c2)c(I)c1`, the XC50 rises from 721 nM to 1120 nM (1.6-fold).

Compared with `CC1CCN(Cc2c(O)ccc3c(CN4CCC(C)CC4)c(O)ccc23)CC1`, `O=C(NCCCCN1CCN(c2cccc(Cl)c2Cl)CC1)c1ccc2c(c1)CCN(C1CCC1)CC2` is 5.6-fold higher in XC50: 133 nM for the first, 747 nM for the second.

Compared with `CCCCc1cc(NCc2ccncc2)nc(Nc2cccc(OC)c2)n1`, `CCOCCCNc1ncc(-c2ccsc2)c(-c2nc(C)cs2)n1` is 2.7-fold lower in XC50: 742 nM for the first, 272 nM for the second.

`Oc1ccc(CCNc2nc(N/N=C/c3ccc(Cl)cc3)nc(N3CCNCC3)n2)cc1` and `Cc1ccccc1C1CCN(C2CCC(NC(=O)/C=C/c3ccc(Cl)cc3)CC2)CC1` (centres undefined) are within 1.5-fold of each other in XC50: 583 nM for the first, 805 nM for the second.

Compared with `CN1CCC(N(Cc2ccc(-c3ccc(C(F)(F)F)cc3)cc2)C(=O)Cn2c(SCc3cccc(F)c3F)cc(=O)c3c2CCC3)CC1`, `COc1cc(C)ccc1S(=O)(=O)N1CCCCC(c2ccc(C(F)(F)F)cc2)=N1` is 4.8-fold higher in XC50: 161 nM for the first, 775 nM for the second.

`CN(C)CCN1CCN(CCCN2c3ccccc3Sc3ccc(C(F)(F)F)cc32)CC1` and `Cc1nnc(NC(=O)c2cn(-c3ccccc3)nc2-c2ccccc2C)o1` are within 1.5-fold of each other in XC50: 762 nM for the first, 565 nM for the second.
